The values that follow come from patent publication US9301951B2 (Ardelyx, Inc., priority 2010, dated 2016).

The target of one assay is T1, rat NaP2b (SLC34A2) (Rattus norvegicus, UniProt Q9JJ09).
T1 construct: host or cells: HEK293
T1 sequence (Q9JJ09 1-695): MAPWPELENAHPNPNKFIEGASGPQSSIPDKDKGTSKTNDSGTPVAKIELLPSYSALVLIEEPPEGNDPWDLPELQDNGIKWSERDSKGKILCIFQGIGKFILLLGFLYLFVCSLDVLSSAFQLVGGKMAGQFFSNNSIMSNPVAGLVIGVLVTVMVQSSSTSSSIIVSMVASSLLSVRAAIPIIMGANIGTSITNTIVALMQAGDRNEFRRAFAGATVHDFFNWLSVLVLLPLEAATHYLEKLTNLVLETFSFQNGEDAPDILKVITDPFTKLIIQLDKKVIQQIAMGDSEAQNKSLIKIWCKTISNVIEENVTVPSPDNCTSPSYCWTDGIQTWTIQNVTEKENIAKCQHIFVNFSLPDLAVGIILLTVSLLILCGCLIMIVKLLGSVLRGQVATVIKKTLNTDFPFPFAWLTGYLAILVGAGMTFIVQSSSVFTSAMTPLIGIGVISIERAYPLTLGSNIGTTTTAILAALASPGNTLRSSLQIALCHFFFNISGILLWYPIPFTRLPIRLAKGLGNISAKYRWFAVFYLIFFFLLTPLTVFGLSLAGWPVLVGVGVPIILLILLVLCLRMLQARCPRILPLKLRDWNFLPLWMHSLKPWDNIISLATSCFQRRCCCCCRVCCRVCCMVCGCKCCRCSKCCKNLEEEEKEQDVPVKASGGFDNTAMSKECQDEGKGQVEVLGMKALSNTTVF
Briefly: Inhibition of NaP2b-mediated Pi (33P) uptake in transfected HEK293 cells, rat NaP2b. Format: cell-based. The note with it: HEK293 cells transfected with rat NaP2b, 100 uM phosphate, 0.1 nM to 30 uM, read-out: pIC50 range for rat Nap2b (converted). How it is done:
(§1) HEK293 cells were obtained from the American Type Culture collection and propagated per their instructions. Expression clones for rat and human NaP2b (SLC34A2) were obtained from Open Biosystems (Catalog numbers MRN1768-9510282, and MHS1010-99823026, respectively). The sequence of the human protein was mutated to insert a threonine after residue 37, and to introduce a N39D mutation.
(§2) Cells were seeded into 96-well plates at 25,000 cells/well and cultured overnight. Lipofectamine 2000 (Invitrogen) was used to introduce the NaP2b cDNA, and the cells were allowed to approach confluence during a second overnight incubation. […] Cells were then overlayed with either choline uptake buffer or sodium uptake buffer (14 mM Tris, 137 mM sodium chloride, 5.4 mM KCl, 2.8 mM CaCl2, 1.2 mM MgSO4, 100 uM KH2PO4, PiT-silencing agent, 1 mg/mL Bovine Serum Albumin, pH 7.4) containing 6-9 uCi/mL ^33P orthophosphoric acid (Perkin Elmer) and test compound. Each compound was tested at twelve concentrations ranging from 0.1 nM to 30 uM. Assays were run in duplicate.
Cells were lysed by addition of 20 μL 0.1% Tween 80 followed by 100 μL scintillation fluid, and counted using a TopCount (Perkin Elmer).
(§3) pIC50 (the negative log of the […]) values of the test compounds were calculated using GraphPad Prism.

The target in a further assay is T2, human NaP2b (SLC34A2) (Homo sapiens, UniProt O95436).
T2 construct: host or cells: HEK293
T2 sequence (O95436 1-690): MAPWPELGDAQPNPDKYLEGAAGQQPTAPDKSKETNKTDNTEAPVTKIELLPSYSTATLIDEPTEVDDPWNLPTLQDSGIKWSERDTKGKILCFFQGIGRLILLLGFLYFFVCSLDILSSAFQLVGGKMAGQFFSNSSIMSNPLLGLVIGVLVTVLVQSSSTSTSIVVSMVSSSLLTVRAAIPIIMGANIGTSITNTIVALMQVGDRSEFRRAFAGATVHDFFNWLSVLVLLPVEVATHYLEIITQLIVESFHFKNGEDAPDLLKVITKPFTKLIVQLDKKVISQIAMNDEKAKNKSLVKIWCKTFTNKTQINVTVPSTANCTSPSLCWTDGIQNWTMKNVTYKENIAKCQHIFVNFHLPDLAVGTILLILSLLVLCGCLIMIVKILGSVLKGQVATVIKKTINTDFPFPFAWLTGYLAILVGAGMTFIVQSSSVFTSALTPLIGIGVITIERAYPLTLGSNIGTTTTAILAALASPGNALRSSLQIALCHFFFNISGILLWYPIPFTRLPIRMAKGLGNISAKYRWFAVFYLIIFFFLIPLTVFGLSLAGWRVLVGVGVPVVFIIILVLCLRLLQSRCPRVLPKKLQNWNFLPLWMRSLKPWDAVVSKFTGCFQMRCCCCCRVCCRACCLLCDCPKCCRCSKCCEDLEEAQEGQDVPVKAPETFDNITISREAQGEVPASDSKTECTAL
In words: Inhibition of NaP2b-mediated Pi (33P) uptake in transfected HEK293 cells, human NaP2b. Format: cell-based. The note with it: HEK293 cells transfected with human NaP2b, 100 uM phosphate, 0.1 nM to 30 uM, read-out: pIC50 range for human NaP2b (converted). How it is done:
as §1
The rate of phosphate (Pi) uptake into HEK293 cells was measured using a modification of the method described by Mohrmann et al. (Mohrmann, I., Mohrmann, M., Biber, J., and Murer, H. (1986) Am. J. Phys. 250(3 Pt 1):G323-30.) Transfected HEK293 cells were treated with a pharmacological agent to minimize endogenous PiT-mediated phosphate transport activity, such that the only remaining sodium-dependent phosphate transport activity is that which was bestowed by introduction of the NaP2b genes.
as §2
After incubation for 3-30 minutes at room temperature, assay mixtures were removed, and the cells were washed twice with ice cold stop solution (137 mM sodium chloride, 14 mM Tris, pH 7.4). Cells were lysed by addition of 20 μL 0.1% Tween 80 followed by 100 μL scintillation fluid, and counted using a TopCount (Perkin Elmer).
as §3

SMILES strings stand for the structures.

Turning to `CCN(CC)c1ccc(NC(=O)c2cccc(CS(=O)(=O)CCOCCOCCOCCOCCC(=O)O)c2)c(-c2cc(C(=O)NCc3cccc(C(F)(F)F)c3)ccn2)c1` [Example 167, 1-(((3-((4-(diethylamino)-2-[4-(((3-(trifluoromethyl)phenyl]methyl)carbamoyl)pyridin-2-yl)phenyl)carbamoyl)phenyl)methane)sulfonyl)-3,6,9,12-tetraoxapentadecan-15-oic acid], the IC50 at rat NaP2b (SLC34A2) and at human NaP2b (SLC34A2) was 10 to 31.6 µM in each case.
`CCN(CC)c1ccc(NC(=O)c2cccc(COCCOCCOCCOCCOC(=O)N(CCO)CCO)c2)c(-c2cc(C(=O)NCc3cccc(C(F)(F)F)c3)ccn2)c1` [Example 176, 1-(3-(4-(diethylamino)-2-(4-(3-(trifluoromethyl)benzylcarbamoyl)pyridin-2-yl)phenylcarbamoyl)phenyl)-2,5,8,11-tetraoxamidecan-13-yl bis(2-hydroxyethyl)carbamate]: the IC50 at rat NaP2b (SLC34A2) and on human NaP2b (SLC34A2) was 1 to 7.94 µM in each case.
In the case of `CCN(CC)c1ccc(NC(=O)c2cccc(COCCOCCOCCOCCOC(=O)NC(CO)(CO)CO)c2)c(-c2cc(C(=O)NCc3cccc(C(F)(F)F)c3)ccn2)c1` [Example 177, 1-(3-(4-(diethylamino)-2-(4-(3-(trifluoromethyl)benzylcarbamoyl)pyridin-2-yl)phenylcarbamoyl)phenyl)-2,5,8,11-tetraoxamidecan-13-yl 1,3-dihydroxy-2-(hydroxymethyl)propan-2-ylcarbamate], the IC50 on rat NaP2b (SLC34A2) and at human NaP2b (SLC34A2) was 1 to 7.94 µM in each case.
Turning to `CCN(CC)c1ccc(NC(=O)c2cccc(Cn3ccc4c(C(=O)NCCOCCOCCOCCC(=O)O)cccc43)c2)c(-c2cc(C(=O)N[C@H]3CCCc4ccccc43)ccn2)c1` [Example 182, (S)-1-(1-(3-(4-(diethylamino)-2-(4-(1,2,3,4-tetrahydronaphthalen-1-ylcarbamoyl)pyridin-2-yl)phenylcarbamoyl)benzyl)-1H-indol-4-yl)-1-oxo-5,8,11-trioxa-2-azatetradecan-14-oic acid], the IC50 at rat NaP2b (SLC34A2) and on human NaP2b (SLC34A2) was less than 1 µM in each case.
Take `CCN(CC)c1ccc(NC(=O)c2cccc(C(=O)N(C)CCN3CCN(C(=O)N(C)CCOCCOCCOCCC(=O)N(C)C[C@H](O)[C@@H](O)[C@H](O)[C@H](O)CO)CC3)c2)c(-c2cc(C(=O)N[C@H]3CCCc4ccccc43)ccn2)c1` [Example 232, 3-N-[4-(diethylamino)-2-(4-{[(1S)-1,2,3,4-tetrahydronaphthalen-1-yl]carbamoyl}pyridin-2-yl)phenyl]-1-N-methyl-1-N-(2-{4-[methyl(2-{2-[2-(2-{methyl[(2S,3R,4R,5R)-2,3,4,5,6-pentahydroxyhexyl]carbamoyl}ethoxy)ethoxy]ethoxy}ethyl)carbamoyl]piperazin-1-yl}ethyl)benzene-1,3-dicarboxamide]: the IC50 on rat NaP2b (SLC34A2) and at human NaP2b (SLC34A2) was 10 to 31.6 µM each time.
For the compound `CCN(CC)c1ccc(NC(=O)c2cccc(CCCOCCOCCOCCOCCNC(=O)c3cccc(CCCOCCOCCOCCOCCOCCOCCOCCOCCOC)c3)c2)c(-c2cc(C(=O)NCc3cccc(C(F)(F)F)c3)ccn2)c1` [Example 271, 2-(2-(3-(1-(3-(2,5,8,11,14,17,20,23,26-nonaoxanonacosan-29-yl)phenyl)-1-oxo-5,8,11,14-tetraoxa-2-azaheptadecan-17-yl)benzamido)-5-(diethylamino)phenyl)-N-(3-(trifluoromethyl)benzyl)isonicotinamide], the IC50 at human NaP2b (SLC34A2) is less than 1 µM.
Consider `O=C(O)CCOCCOCCOCCOCCCc1cccc(C(=O)Nc2ccc(OC3CCC3)cc2-c2cc(C(=O)N[C@H]3CCCc4ccccc43)ccn2)c1` [Example 285, (S)-16-(3-((4-cyclobutoxy-2-(4-((1,2,3,4-tetrahydronaphthalen-1-yl)carbamoyl)pyridin-2-yl)phenyl)carbamoyl)phenyl)-4,7,10,13-tetraoxahexadecan-1-oic acid], for which the IC50 on human NaP2b (SLC34A2) was less than 1 µM.
The same measure, in the same setting: under `CCN(CC)c1ccc(NC(=O)c2cccc(CCCOCCOCCOCCOCCNS(=O)(=O)c3ccc(C(=O)N(C)CCOCCOCCOCCOCCOCCOCCOC)cc3)c2)c(-c2cc(C(=O)NCc3cccc(C(F)(F)F)c3)ccn2)c1` [Example 287, 2-(2-(3-(1-(4-(2,5,8,11,14,17,20-heptaoxadocosan-22-yl(methyl)carbamoyl)phenylsulfonamido)-3,6,9,12-tetraoxapentadecan-15-yl)benzamido)-5-(diethylamino)phenyl)-N-(3-(trifluoromethyl)benzyl)isonicotinamide] stands 1 to 7.94 µM; under `CCN(CC)c1ccc(NC(=O)c2cccc(CCCOCCOCCOCCOCCNS(=O)(=O)c3ccc(C(=O)N4CCN(CCOCCOCCOCCOCCOCCOCCOC)C(=O)C4)cc3)c2)c(-c2cc(C(=O)NCc3cccc(C(F)(F)F)c3)ccn2)c1` [Example 288, 2-(2-(3-(1-(4-(4-(2,5,8,11,14,17,20-heptaoxadocosan-22-yl)-3-oxopiperazine-1-carbonyl)phenylsulfonamido)-3,6,9,12-tetraoxapentadecan-15-yl)benzamido)-5-(diethylamino)phenyl)-N-(3-(trifluoromethyl)benzyl)isonicotinamide], 1 to 7.94 µM.
With `CCN(CC)c1ccc(NC(=O)c2cccc(CCCOCCOCCOCCOCCC(=O)N3CCN(C(=O)c4cccc(CCCOCCOCCOCCOCCC(=O)O)c4)CC3)c2)c(-c2cc(C(=O)NCc3cccc(C(F)(F)F)c3)ccn2)c1` [Example 293, 16-(3-(4-(16-(3-(4-(diethylamino)-2-(4-(3-(trifluoromethyl)benzylcarbamoyl)pyridin-2-yl)phenylcarbamoyl)phenyl)-4,7,10,13-tetraoxahexadecane)piperazine-1-carbonyl)phenyl)-4,7,10,13-tetraoxahexadecan-1-oic acid], the IC50 on rat NaP2b (SLC34A2) and on human NaP2b (SLC34A2) was 1 to 7.94 µM each time.
With `CCN(CC)c1ccc(NC(=O)c2cccc(CCCOCCOCCOCCOCCNS(=O)(=O)c3ccc(CCC(=O)NCCOCCOCCOCCOCCOCCOCCOC)cc3)c2)c(-c2cc(C(=O)NCc3cccc(C(F)(F)F)c3)ccn2)c1` [Example 296, 2-(5-(diethylamino)-2-(3-(1-(4-(24-oxo-2,5,8,11,14,17,20-heptaoxa-23-azahexacosan-26-yl)phenylsulfonamido)-3,6,9,12-tetraoxapentadecan-15-yl)benzamido)phenyl)-N-(3-(trifluoromethyl)benzyl)isonicotinamide], the IC50 at human NaP2b (SLC34A2) was 1 to 7.94 µM.
